Reference: patent US9416115B2, “Fused heterocyclic compounds as ion channel modulators” (Gilead Sciences, Inc., priority 2013, dated 2016)

What follows are compounds tested against hNav1.7 (Homo sapiens, UniProt Q15858) (assay: Voltage-dependent inhibition of the Nav1.7 sodium channel). Conditions: voltage-dependent block of peak current.
Assay type: cell-based
Method: HEK-293 cells stably expressing wild-type (WT) hNav1.7 were obtained from Scottish Biomedical (Glasgow, Scotland, United Kingdom). Cells are maintained with standard tissue culture procedures and stable channel expression is maintained with 500 ug/mL G418 in the culture medium. Unless otherwise noted, all reagents are purchased from Sigma-Aldrich (St Louis, Mo., U.S.A.).
Assays measuring Voltage-Dependent Block (VDB) of Nav1.7 are performed on an automated electrophysiology platform, QPatch 16X or QPatch HT (Sophion Bioscience, Copenhagen, Denmark), using the whole cell patch clamp technique to measure currents through the cell membrane. Series resistance compensation is set to 100% and series resistance and whole-cell compensation are performed automatically. Currents stored in the Sophion Bioscience Oracle database (Sophion Bioscience, Copenhagen, Denmark). Analysis is performed using QPatch Assay software and data are compiled in Excel 2010 (Microsoft, Seattle, Wash., U.S.A.).
The internal (pipette) solution consists of (in mM) 105 CsF, 10 NaF, 20 CsCl, 2 EGTA, 10 HEPES, 10 Dextrose with a pH of 7.35 and osmolarity of 300 mOsmol/kg. The external (bath) solution contains in (mM): 140 NaCl, 4 KCl, 1.8 CaCl2, 1 MgCl2, 10 dextrose, 10 HEPES, with a pH of 7.35 and osmolarity of 310 mOsmol/kg. Experiments are carried out at 23-25° C.
Compound stocks are routinely made by the Gilead Sample Bank in vials to 10 mM in dimethyl sulfoxide (DMSO). In some cases, when compounds are not soluble in DMSO, they are made in 100% ethanol. Stocks are sonicated as necessary. Compounds are diluted in extracellular solution using a MicroLab Nimbus (Hamilton Robotics, Reno, Nev.) to 1 μM in glass vials and transferred to glass well plates before robotic addition to the cells.
Cells are allowed to stabilize for 10 min after establishment of the whole-cell configuration before current is measured. The test compound is applied 3 times at 120 second intervals to allow for equilibration. Currents were leak subtracted using a P/4 procedure, low-pass Bessel filtered at 5 kHz and digitized at 25 kHz. Results are presented as mean percentage inhibition.
Voltage-dependent block of Nav1.7 peak current was measured during a voltage step to 0 mV (20 ms) following a voltage step pre-conditioning steps (−60 mV for 10 sec followed by −120 mV for 10 ms). The holding potential was −120 mV and this voltage protocol induces half maximal inactivation of Nav1.7. The voltage protocol for VDB was performed every 45 seconds in the absence and presence of compound and percentage inhibition was calculated with respect to the compound free condition.

Sequence of hNav1.7 (Q15858 whole entry): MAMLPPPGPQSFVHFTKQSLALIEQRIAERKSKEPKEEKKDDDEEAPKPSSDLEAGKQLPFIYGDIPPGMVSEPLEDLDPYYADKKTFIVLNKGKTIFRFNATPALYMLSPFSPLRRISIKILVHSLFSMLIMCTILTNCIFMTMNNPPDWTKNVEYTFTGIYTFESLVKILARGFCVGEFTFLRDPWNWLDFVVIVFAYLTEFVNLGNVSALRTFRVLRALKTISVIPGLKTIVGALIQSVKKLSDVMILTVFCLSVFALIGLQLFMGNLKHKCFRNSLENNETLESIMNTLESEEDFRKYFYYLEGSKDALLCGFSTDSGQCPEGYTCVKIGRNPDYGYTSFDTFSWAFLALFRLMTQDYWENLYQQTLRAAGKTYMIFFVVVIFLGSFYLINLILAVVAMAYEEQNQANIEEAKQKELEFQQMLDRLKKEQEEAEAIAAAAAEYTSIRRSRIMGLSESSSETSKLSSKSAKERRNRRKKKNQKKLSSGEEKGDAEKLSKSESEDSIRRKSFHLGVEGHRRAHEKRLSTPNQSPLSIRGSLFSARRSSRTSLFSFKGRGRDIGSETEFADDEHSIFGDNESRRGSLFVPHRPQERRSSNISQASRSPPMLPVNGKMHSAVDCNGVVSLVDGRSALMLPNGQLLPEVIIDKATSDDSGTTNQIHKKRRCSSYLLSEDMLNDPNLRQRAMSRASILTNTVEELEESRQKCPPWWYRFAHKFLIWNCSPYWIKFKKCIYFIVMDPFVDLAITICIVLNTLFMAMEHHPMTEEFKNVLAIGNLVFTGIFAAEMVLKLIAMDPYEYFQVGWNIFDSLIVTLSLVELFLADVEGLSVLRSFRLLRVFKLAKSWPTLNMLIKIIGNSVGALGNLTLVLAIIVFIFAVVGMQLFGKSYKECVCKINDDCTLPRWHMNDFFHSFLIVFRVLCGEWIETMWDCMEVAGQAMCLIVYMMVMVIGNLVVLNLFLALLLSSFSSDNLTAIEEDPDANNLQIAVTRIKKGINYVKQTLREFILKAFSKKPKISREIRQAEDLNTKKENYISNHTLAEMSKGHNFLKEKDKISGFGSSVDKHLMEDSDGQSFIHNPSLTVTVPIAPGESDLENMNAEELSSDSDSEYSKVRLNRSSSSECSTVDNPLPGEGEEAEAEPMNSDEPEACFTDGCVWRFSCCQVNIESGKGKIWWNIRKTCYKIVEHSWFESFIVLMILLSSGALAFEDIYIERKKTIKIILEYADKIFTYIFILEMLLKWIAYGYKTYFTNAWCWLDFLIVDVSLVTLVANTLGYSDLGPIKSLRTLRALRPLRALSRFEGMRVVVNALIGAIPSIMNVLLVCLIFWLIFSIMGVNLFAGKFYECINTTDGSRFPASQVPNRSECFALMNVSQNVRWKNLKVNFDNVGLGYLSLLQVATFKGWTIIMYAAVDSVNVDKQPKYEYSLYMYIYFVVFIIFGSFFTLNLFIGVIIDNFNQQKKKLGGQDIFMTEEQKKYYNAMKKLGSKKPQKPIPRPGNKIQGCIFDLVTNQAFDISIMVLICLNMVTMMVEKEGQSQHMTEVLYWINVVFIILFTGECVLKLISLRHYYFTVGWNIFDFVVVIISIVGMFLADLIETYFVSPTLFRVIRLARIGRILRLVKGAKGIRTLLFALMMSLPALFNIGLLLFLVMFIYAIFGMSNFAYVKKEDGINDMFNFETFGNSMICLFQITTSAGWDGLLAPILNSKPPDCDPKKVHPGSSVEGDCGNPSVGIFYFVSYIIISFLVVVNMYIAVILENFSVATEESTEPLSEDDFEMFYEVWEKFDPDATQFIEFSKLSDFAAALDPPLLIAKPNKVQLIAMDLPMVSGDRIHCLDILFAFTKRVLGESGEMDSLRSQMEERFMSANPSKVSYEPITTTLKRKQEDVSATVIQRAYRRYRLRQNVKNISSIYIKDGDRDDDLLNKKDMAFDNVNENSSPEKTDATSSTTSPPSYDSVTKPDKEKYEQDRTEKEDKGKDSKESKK

Structure (SMILES)	Nav 1.7-VDB 1 uM [percentage inhibition]
Fc1cc(C(F)(F)F)ccc1-c1ccc2onc(OCc3ncccn3)c2c1 [Example 6, 5-(2-fluoro-4-(trifluoromethyl)phenyl)-3-(pyrimidin-2-ylmethoxy)benzo[d]isoxazole]	15.6
COc1cc(OC(F)(F)F)ccc1-c1ccc2onc(OCc3ncccn3)c2c1 [Example 4, 5-(2-methoxy-4-(trifluoromethoxy)phenyl)-3-(pyrimidin-2-ylmethoxy)benzo[d]isoxazole]	28.6
Cc1nnc(COc2noc3ccc(-c4ccc(OC(F)(F)F)cc4)cc23)o1 [Example 99, 3-((5-methyl-1,3,4-oxadiazol-2-yl)methoxy)-5-(4-(trifluoromethoxy)phenyl)benzo[d]isoxazole]	59.3
FC(F)(F)Oc1cccc(-c2ccc3onc(OCc4ncccn4)c3c2)c1 [Example 10, 3-(pyrimidin-2-ylmethoxy)-5-(3-(trifluoromethoxy)phenyl)benzo[d]isoxazole]	10.0
